Assay results reported in the NIST ThermoML archive (doi:10.1016/j.fluid.2013.06.021).

Assay: xn = mol fraction of the nth substance listed
Settings: 101 kPa, Liquid; for speed of sound: Sing-around technique in a fixed-path interferometer; for mass density: Vibrating tube method; for viscosity: Capillary tube (Ostwald / Ubbelohde) method

CCCCOCCO [2-butoxyethan-1-ol] + CCCCO
Settings | mass density, 293.15 K [kg/m3] | mass density, 298.15 K [kg/m3] | speed of sound, 293.15 K [m/s] | speed of sound, 298.15 K [m/s] | speed of sound, 303.15 K [m/s] | viscosity, 298.15 K [mPa·s] | viscosity, 303.15 K [mPa·s]
x1 = 0.0516 | 816.39 | 812.543 | 1262.2 | 1245.2 | 1228.5 | 2.586 | 2.269
x1 = 0.1011 | 822.44 | 818.58 | 1266.6 | 1249.7 | 1233 | 2.553 | 2.243
x1 = 0.1535 | 828.64 | 824.722 | 1271.1 | 1254.2 | 1237.5 | 2.536 | 2.235
x1 = 0.2027 | 834.27 | 830.281 | 1275.2 | 1258.3 | 1241.5 | 2.524 | 2.234
x1 = 0.2537 | 839.84 | 835.832 | 1279.2 | 1262.3 | 1245.5 | 2.516 | 2.229
x1 = 0.3027 | 844.99 | 840.96 | 1282.9 | 1266.1 | 1249.1 | – | –
x1 = 0.3028 | – | – | – | – | – | 2.516 | 2.235
x1 = 0.4 | 854.57 | 850.503 | 1289.8 | 1272.9 | 1255.9 | 2.527 | 2.255
x1 = 0.5055 | 864.12 | 860.043 | 1296.7 | 1279.7 | – | 2.555 | 2.303
x1 = 0.6054 | 872.48 | 868.393 | 1302.5 | 1285.6 | – | 2.592 | 2.345
x1 = 0.7025 | 880.07 | 875.94 | 1307.9 | 1290.9 | – | 2.645 | 2.401
x1 = 0.8042 | 887.49 | 883.317 | 1313.2 | 1296.2 | – | 2.703 | 2.475
x1 = 0.8552 | 891.03 | 886.83 | 1315.9 | 1298.8 | – | 2.743 | 2.518
x1 = 0.906 | 894.44 | 890.248 | 1318.5 | 1301.4 | – | 2.785 | 2.564
x1 = 0.9526 | 897.48 | 893.29 | 1320.9 | 1303.8 | – | 2.835 | 2.607
